In patent publication US9359361B2, “Immune system modulators” (JANUS BIOTHERAPEUTICS, INC., priority 2011, dated 2016):

Biological target: human TLR9 (hTLR9) (Homo sapiens (Human), UniProt Q9NR96)
Assay: TLR9 antagonist assay in HEK-Blue-hTLR9 cells (NF-kB/AP-1 SEAP reporter)
Format: cell-based
Conditions: hTLR9 agonist (such as ODN 2006, 1 uM), SEAP readout at 620 nm, read-out: hTLR9 antagonism IC50
Description: TLR9 Antagonist Assay HEK-Blue™-hTLR9 cells were obtained from InvivoGen Inc. and used to determine test compound antagonism of human TLR9 (hTLR9) driven responses. HEK-Blue™-hTLR9 cells are designed for studying the stimulation of human TLR9 by monitoring the activation of NF-kB. As described by the manufacturer, “HEK-Blue™-hTLR9 cells were obtained by co-transfection of the hTLR9 gene and an optimized secreted embryonic alkaline phosphatase (SEAP) reporter gene into HEK293 cells. The SEAP reporter gene is placed under the control of the IFN-b minimal promoter fused to five NF-kB and AP-1 binding sites. Stimulation with a TLR9 ligand activates NF-kB and AP-1 which induces the production of SEAP. Levels of SEAP can be easily determined with QUANTI-Blue™ a detection medium that turns purple/blue in the presence of alkaline phosphatase”. TLR9 Antagonism Assay […] Day 2 […] Day 3 […] Calculation of IC50 The concentration dependent inhibition of hTLR9 dependent SEAP production was expressed as the concentration of compound which produced half the maximal level of SEAP induced by the hTLR agonist alone.

human TLR9 (hTLR9), sequence (Q9NR96 26-1032): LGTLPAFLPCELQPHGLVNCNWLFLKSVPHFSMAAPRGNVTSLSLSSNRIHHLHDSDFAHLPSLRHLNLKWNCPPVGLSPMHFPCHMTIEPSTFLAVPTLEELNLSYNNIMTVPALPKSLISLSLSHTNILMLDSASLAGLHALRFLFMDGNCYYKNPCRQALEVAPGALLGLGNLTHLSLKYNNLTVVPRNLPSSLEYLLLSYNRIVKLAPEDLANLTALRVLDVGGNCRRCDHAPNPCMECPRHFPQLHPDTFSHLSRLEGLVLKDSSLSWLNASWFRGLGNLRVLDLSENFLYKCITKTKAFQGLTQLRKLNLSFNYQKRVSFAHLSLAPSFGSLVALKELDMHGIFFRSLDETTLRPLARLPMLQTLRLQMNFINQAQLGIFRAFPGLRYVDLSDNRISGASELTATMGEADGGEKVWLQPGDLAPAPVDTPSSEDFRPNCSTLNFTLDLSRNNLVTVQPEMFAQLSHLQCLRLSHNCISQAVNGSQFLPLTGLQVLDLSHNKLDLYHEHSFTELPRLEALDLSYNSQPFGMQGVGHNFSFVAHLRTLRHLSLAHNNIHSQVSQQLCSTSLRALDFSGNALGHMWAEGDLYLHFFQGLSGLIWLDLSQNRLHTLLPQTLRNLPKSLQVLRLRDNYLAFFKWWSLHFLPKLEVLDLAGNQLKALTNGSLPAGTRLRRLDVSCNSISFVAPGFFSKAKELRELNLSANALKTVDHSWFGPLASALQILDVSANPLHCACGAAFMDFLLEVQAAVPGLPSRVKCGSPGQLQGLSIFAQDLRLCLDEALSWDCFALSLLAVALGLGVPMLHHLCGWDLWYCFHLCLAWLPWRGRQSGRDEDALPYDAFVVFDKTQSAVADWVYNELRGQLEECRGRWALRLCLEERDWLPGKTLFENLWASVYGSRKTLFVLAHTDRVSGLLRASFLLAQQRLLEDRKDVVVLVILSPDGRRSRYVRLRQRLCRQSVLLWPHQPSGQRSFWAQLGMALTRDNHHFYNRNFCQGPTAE

## c1ccc(-c2nc(NCCN3CCOCC3)c3nc(NCCN4CCOCC4)c(N4CCCC4)nc3n2)cc1 [Example 66]
  IC50: 181 nM
